This passage reports AC50 results from patent US20250171437A1 (Agios Pharmaceuticals,Inc., priority 2022, published 2025).

As usually defined, the AC50 is the concentration at which the activity in the assay is half-maximal.

The experiment has as its target T1, human PAH with the R408W mutation (A375 R408W cells) (Homo sapiens, UniProt P00439, R408W).
T1 construct: expressed in transfected cells
T1 sequence (P00439 1-452 R408W): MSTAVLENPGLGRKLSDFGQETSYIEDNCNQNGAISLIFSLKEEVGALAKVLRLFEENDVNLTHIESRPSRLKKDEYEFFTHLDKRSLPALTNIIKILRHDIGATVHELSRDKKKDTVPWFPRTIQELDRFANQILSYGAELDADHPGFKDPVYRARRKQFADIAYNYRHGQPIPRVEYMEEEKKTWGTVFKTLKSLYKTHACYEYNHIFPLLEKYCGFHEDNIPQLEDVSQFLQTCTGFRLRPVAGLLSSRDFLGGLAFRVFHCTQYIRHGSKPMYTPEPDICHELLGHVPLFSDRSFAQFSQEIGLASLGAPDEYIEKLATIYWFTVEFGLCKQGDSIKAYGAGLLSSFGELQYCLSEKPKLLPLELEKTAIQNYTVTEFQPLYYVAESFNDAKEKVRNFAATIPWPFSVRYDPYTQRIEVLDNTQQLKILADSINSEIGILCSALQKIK
Description: Cell Based Phenylalanine Flux Assay. Particulars: 24 hrs with compound, then 20 μM sepiapterin and 800 μM 13C9,15N-Phenylalanine for 4 hours, 13C-Tyrosine by LC-MS, average where tested multiple times. The method, boiled down: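 A375 cells stably expressing lentiviral human PAH R408W were treated with compounds (10-point 2-fold dilutions, 0.5% DMSO, duplicate) for 24 h at 37 °C. Then 20 μM sepiapterin and 800 μM 13C9,15N-Phe were added for 4 h; media 13C-Tyr was measured by LC-MS to give AC50.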

Where [1] appears, read: A375 cells expressing R408W PAH.

A value given as a limit tells only on which side of the number the result lay.

As for `Cn1ccc(-c2nnc(C(=O)N3CCc4[nH]cnc4[C@@H]3c3nc4cc(F)ccc4o3)o2)n1` [Example 105, (R)-(4-(5-fluorobenzo[d]oxazol-2-yl)-6,7-dihydro-1H-imidazo[4,5-c]pyridin-5(4H)-yl)(5-(1-methyl-1H-pyrazol-3-yl)-1,3,4-oxadiazol-2-yl)methanone], where the note is “A375 R408W cells”, the AC50 is 1 to 5 µM.

`CC(C)(C)c1nnc(C(=O)N2CCc3[nH]cnc3[C@H]2c2nc3c(F)ccc(F)c3o2)o1` [Example 852, (S)-(5-(tert-butyl)-1,3,4-oxadiazol-2-yl)(4-(4,7-difluorobenzo[d]oxazol-2-yl)-6,7-dihydro-1H-imidazo[4,5-c]pyridin-5(4H)-yl)methanone]: where the note is “A375 R408W cells”, the AC50 was at most 0.5 µM. In the case of `O=C(c1ocnc1C(F)F)N1CCc2[nH]cnc2[C@H]1c1nc2c(OC(F)(F)F)cccc2o1` [Example 536, (S)-(4-(difluoromethyl)oxazol-5-yl)(4-(4-(trifluoromethoxy)benzo[d]oxazol-2-yl)-6,7-dihydro-1H-imidazo[4,5-c]pyridin-5(4H)-yl)methanone], the AC50 (A375 R408W cells) was at most 0.5 µM. Take `COc1cccc2oc([C@@H]3c4nc[nH]c4CCN3C(=O)c3nnc(-c4ccn(C)n4)o3)nc12` [Example 639, (S)-(4-(4-methoxybenzo[d]oxazol-2-yl)-6,7-dihydro-1H-imidazo[4,5-c]pyridin-5(4H)-yl)(5-(1-methyl-1H-pyrazol-3-yl)-1,3,4-oxadiazol-2-yl)methanone]: the AC50 (A375 R408W cells) is at most 0.5 µM. For `O=C(c1ccn(-c2ccccn2)n1)N1CCc2[nH]cnc2C1c1nc2ccccc2o1` (stereo not drawn), the concentration at half-maximal activity (AC50) under setting [1] is at least 5 µM.

For `CC(C)(O)c1nc(C(F)F)c(C(=O)N2CCc3[nH]cnc3[C@H]2c2nc3cc(Br)cc(F)c3o2)o1` [Example 571, (S)-(4-(5-bromo-7-fluorobenzo[d]oxazol-2-yl)-6,7-dihydro-1H-imidazo[4,5-c]pyridin-5(4H)-yl)(4-(difluoromethyl)-2-(2-hydroxypropan-2-yl)oxazol-5-yl)methanone], the AC50 (A375 R408W cells) was at most 0.5 µM. On to `CC(C)(O)c1nc(Br)c(C(=O)N2CCc3[nH]cnc3[C@H]2c2nc3cc(F)ccc3o2)o1` [Example 124, (S)-(4-bromo-2-(2-hydroxypropan-2-yl)oxazol-5-yl)(4-(5-fluorobenzo[d]oxazol-2-yl)-6,7-dihydro-1H-imidazo[4,5-c]pyridin-5(4H)-yl)methanone], for which, for the setting “A375 R408W cells”, the AC50 is 0.5 to 1 µM. Take `CC(C)(O)C1CCN(c2ccc3c(C(=O)N4CCc5[nH]cnc5C4c4nc5cc(F)ccc5o4)cnn3c2)CC1` (stereo not drawn): the AC50 under setting [1] is at least 5 µM. On to `COc1cc(F)cc2nc([C@@H]3c4nc[nH]c4CCN3C(=O)c3ocnc3C(F)F)oc12` [Example 718, (S)-(4-(difluoromethyl)oxazol-5-yl)(4-(5-fluoro-7-methoxybenzo[d]oxazol-2-yl)-6,7-dihydro-1H-imidazo[4,5-c]pyridin-5(4H)-yl)methanone], for which the AC50 (A375 R408W cells) was at most 0.5 µM. Turning to `Cc1c(F)ccc2oc([C@H]3c4nc[nH]c4CCN3C(=O)c3ocnc3C(F)F)nc12` [Example 721, (R)-(4-(difluoromethyl)oxazol-5-yl)(4-(5-fluoro-4-methylbenzo[d]oxazol-2-yl)-6,7-dihydro-1H-imidazo[4,5-c]pyridin-5(4H)-yl)methanone], the AC50 (A375 R408W cells) is 1 to 5 µM. For `CC(C)(C)c1ncc(C(=O)N2CCc3[nH]cnc3[C@@H]2c2nc3cc(F)ccc3o2)o1` [Example 22, (R)-(2-(tert-butyl)oxazol-5-yl)(4-(5-fluorobenzo[d]oxazol-2-yl)-6,7-dihydro-1H-imidazo[4,5-c]pyridin-5(4H)-yl)methanone], the AC50 (A375 R408W cells) was 1 to 5 µM. In the case of `O=C(c1ccnn1C(F)(F)F)N1CCc2[nH]cnc2[C@@H]1c1nc2cccc(F)c2o1` [Example 290, (R)-(4-(7-fluorobenzo[d]oxazol-2-yl)-6,7-dihydro-1H-imidazo[4,5-c]pyridin-5(4H)-yl)(1-(trifluoromethyl)-1H-pyrazol-5-yl)methanone], the concentration at half-maximal activity (AC50) (A375 R408W cells) lay within 1 to 5 µM. Take `O=C(c1ccnn1C(F)F)N1CCc2[nH]cnc2[C@@H]1c1nc2ccccc2o1` [Example 564, (R)-(4-(benzo[d]oxazol-2-yl)-6,7-dihydro-1H-imidazo[4,5-c]pyridin-5(4H)-yl)(1-(difluoromethyl)-1H-pyrazol-5-yl)methanone]: the AC50 (A375 R408W cells) is 1 to 5 µM. On to `Cn1nc(Cl)nc1C(=O)N1CCc2[nH]cnc2[C@H]1c1nc2cccc(F)c2o1` [Example 283, (S)-(3-chloro-1-methyl-1H-1,2,4-triazol-5-yl)(4-(7-fluorobenzo[d]oxazol-2-yl)-6,7-dihydro-1H-imidazo[4,5-c]pyridin-5(4H)-yl)methanone], for which the half-maximal activity concentration (AC50) (A375 R408W cells) was at most 0.5 µM.

Turning to `O=C(c1ccnn1C(F)F)N1CCc2[nH]cnc2[C@@H]1c1nc2c(F)cc(F)cc2o1` [Example 490, (R)-(4-(4,6-difluorobenzo[d]oxazol-2-yl)-6,7-dihydro-1H-imidazo[4,5-c]pyridin-5(4H)-yl)(1-(difluoromethyl)-1H-pyrazol-5-yl)methanone], for the setting “A375 R408W cells”, the AC50 is 1 to 5 µM. As to `Cc1n[nH]cc1-c1nnc(C(=O)N2CCc3[nH]cnc3C2c2nc3cc(F)ccc3o2)o1` (stereo not drawn), the AC50 under setting [1] lay in the range of 1 to 5 µM.

Take `Cc1cccc2nc(C3c4nc[nH]c4CCN3C(=O)c3ccn(-c4ccccn4)n3)oc12` (stereo not drawn): the AC50 under setting [1] fell in the range of 1 to 5 µM.

With `O=C(c1cn[nH]c1Cl)N1CCc2[nH]cnc2C1c1nc2cc(F)ccc2o1` (stereo not drawn), under setting [1], the AC50 lay within 1 to 5 µM. Take `O=C(c1ccnn1C(F)F)N1CCc2[nH]cnc2[C@H]1c1nc2cc(F)cc(F)c2o1` [Example 609]: the AC50 (A375 R408W cells) is 0.5 to 1 µM. Take `CC(C)(O)c1ncc(C(=O)N2CCc3[nH]cnc3C2c2nc3c(F)ccc(F)c3o2)o1` (stereo not drawn): the AC50 under setting [1] was 1 to 5 µM. Still for that read-out and setting: for `Cc1cccc2nc([C@H]3c4nc[nH]c4CCN3C(=O)c3cnc(C(C)(C)O)o3)oc12` (single isomer, unassigned) the value was at least 5 µM. For `Cc1cccc2oc([C@H]3c4nc[nH]c4CCN3C(=O)c3nc(C(F)F)nn3C)nc12` [Example 448, (R)-(3-(difluoromethyl)-1-methyl-1H-1,2,4-triazol-5-yl)(4-(4-methylbenzo[d]oxazol-2-yl)-6,7-dihydro-1H-imidazo[4,5-c]pyridin-5(4H)-yl)methanone], the AC50 (A375 R408W cells) was 1 to 5 µM. On the same count and under the same terms, in the case of `O=C(c1nnc(-c2ncccc2F)o1)N1CCc2[nH]cnc2[C@H]1c1nc2cccc(F)c2o1` [Example 868, (S)-(4-(7-fluorobenzo[d]oxazol-2-yl)-6,7-dihydro-1H-imidazo[4,5-c]pyridin-5(4H)-yl)(5-(3-fluoropyridin-2-yl)-1,3,4-oxadiazol-2-yl)methanone] it was at most 0.5 µM; in that of “(R)-(3-chloro-1-methyl-1H-1,2,4-triazol-5-yl)(4-(6-fluorobenzo[d]oxazol-2-yl)-6,7-dihydro-1H-imidazo[4,5-c]pyridin-5(4H)-yl)methanone [Example 344]”, 1 to 5 µM.

Consider `COc1cccc2nc([C@@H]3c4nc[nH]c4CCN3C(=O)c3cc(C)nn3C)oc12` [Example 821, (S)-(1,3-dimethyl-1H-pyrazol-5-yl)(4-(7-methoxybenzo[d]oxazol-2-yl)-6,7-dihydro-1H-imidazo[4,5-c]pyridin-5(4H)-yl)methanone], for which, under “A375 R408W cells”, the AC50 is at most 0.5 µM. On the same count and under the same terms, in the case of `O=C(c1oc(-c2ccccn2)nc1C(F)(F)F)N1CCc2[nH]cnc2[C@@H]1c1nc2cccc(F)c2o1` [Example 637, (R)-(4-(7-fluorobenzo[d]oxazol-2-yl)-6,7-dihydro-1H-imidazo[4,5-c]pyridin-5(4H)-yl)(2-(pyridin-2-yl)-4-(trifluoromethyl)oxazol-5-yl)methanone] it was at most 0.5 µM; in that of `C[C@@H](O)c1nc(C(F)F)c(C(=O)N2CCc3[nH]cnc3[C@H]2c2nc3ccc(F)cc3o2)o1` [Example 239, (4-(difluoromethyl)-2-((R)-1-hydroxyethyl)oxazol-5-yl)((S)-4-(6-fluorobenzo[d]oxazol-2-yl)-6,7-dihydro-1H-imidazo[4,5-c]pyridin-5(4H)-yl)methanone], 0.5 to 1 µM. Regarding `Cn1cc(-c2nnc(C(=O)N3CCc4[nH]cnc4[C@H]3c3nc4c(F)ccc(F)c4o3)o2)cn1` [Example 518, (S)-(4-(4,7-difluorobenzo[d]oxazol-2-yl)-6,7-dihydro-1H-imidazo[4,5-c]pyridin-5(4H)-yl)(5-(1-methyl-1H-pyrazol-4-yl)-1,3,4-oxadiazol-2-yl)methanone], for the setting “A375 R408W cells”, the AC50 is at most 0.5 µM. For `Cn1nc(C(F)F)cc1C(=O)N1CCc2[nH]cnc2[C@@H]1c1nc2cccc(F)c2o1` [Example 734, (R)-(3-(difluoromethyl)-1-methyl-1H-pyrazol-5-yl)(4-(7-fluorobenzo[d]oxazol-2-yl)-6,7-dihydro-1H-imidazo[4,5-c]pyridin-5(4H)-yl)methanone], under “A375 R408W cells”, the AC50 was in the range of 1 to 5 µM. Turning to `Cc1nc([C@H](C)O)oc1C(=O)N1CCc2[nH]cnc2[C@H]1c1nc2cccc(F)c2o1` [Example 247, ((S)-4-(7-fluorobenzo[d]oxazol-2-yl)-6,7-dihydro-1H-imidazo[4,5-c]pyridin-5(4H)-yl)(2-((S)-1-hydroxyethyl)-4-methyloxazol-5-yl)methanone], where the note is “A375 R408W cells”, the AC50 lay in the range of 0.5 to 1 µM.
